US9968619B2, “Method of treating triple-negative breast cancer using thienotriazolodiazepine compounds” (ONCOETHIX GMBH, priority 2014, dated 2018)

How the values were obtained:
mTOR = mTOR (Homo sapiens, UniProt P42345); conditions: cited from earlier work
MDA-MB-231 = conditions: cited from earlier work
HCC1937 = conditions: cited from earlier work
[1] = tested on: MDA-MB-231 nude mice-derived xenografts; test: MDA-MB-231 xenografts in nude mice; format: in vivo; conditions: Compound (1-1) 50 mg/kg BID po; everolimus 2 mg/kg 3 time a week ip; 4 weeks treatment
Method: In vivo assays were performed in 8-week-old female MDA-MB-231 nude mice-derived xenografts. 10×10^6 cells were injected, when tumor volume reached 100 mm^3, mice were randomized to 4 groups (n=9): 1) vehicle; 2) 50 mg/kg Compound (1-1) (BID, po); 3) 2 mg/kg of everolimus (3 time a week, ip); 4) combination Compound (1-1) and everolimus; 4 weeks treatment.
Symbols with • indicate significant differences between treatment vs. vehicle-treated mice (p<0.05). * indicates a significant difference in the tumor mass between the combination treated animals and the two single agent groups (*p<0.05, **p<0.01 and ***p<0.001). Results represent the mean±SEM (during the treatment period, n=9). Variation of animal body weight during treatment is illustrated in FIG. 18B. […] The T/C ratio was 39% after 10 days of combination treatment, with an optimal value of 21% on day 23. Compound (1-1) can be used for the treatment of TNBC, either alone or in combination with mTOR inhibitors.

FKBP12 = FKBP12 (Homo sapiens, UniProt P62942); conditions: cited from earlier work
PI3K/mTOR = conditions: cited from earlier work
[2] = tested on: Akt phosphorylation on S473; conditions: cited from earlier work
[3] = tested on: Akt phosphorylation on T308; conditions: cited from earlier work
p110γ (PI3Kγ) = p110γ (PI3Kγ) (Homo sapiens, UniProt P48736); conditions: cited from earlier work
p110β (PI3Kβ) = p110β (PI3Kβ) (Homo sapiens, UniProt P42338); conditions: cited from earlier work
Chain of p110β (PI3Kβ) (P42338 whole entry, species assumed): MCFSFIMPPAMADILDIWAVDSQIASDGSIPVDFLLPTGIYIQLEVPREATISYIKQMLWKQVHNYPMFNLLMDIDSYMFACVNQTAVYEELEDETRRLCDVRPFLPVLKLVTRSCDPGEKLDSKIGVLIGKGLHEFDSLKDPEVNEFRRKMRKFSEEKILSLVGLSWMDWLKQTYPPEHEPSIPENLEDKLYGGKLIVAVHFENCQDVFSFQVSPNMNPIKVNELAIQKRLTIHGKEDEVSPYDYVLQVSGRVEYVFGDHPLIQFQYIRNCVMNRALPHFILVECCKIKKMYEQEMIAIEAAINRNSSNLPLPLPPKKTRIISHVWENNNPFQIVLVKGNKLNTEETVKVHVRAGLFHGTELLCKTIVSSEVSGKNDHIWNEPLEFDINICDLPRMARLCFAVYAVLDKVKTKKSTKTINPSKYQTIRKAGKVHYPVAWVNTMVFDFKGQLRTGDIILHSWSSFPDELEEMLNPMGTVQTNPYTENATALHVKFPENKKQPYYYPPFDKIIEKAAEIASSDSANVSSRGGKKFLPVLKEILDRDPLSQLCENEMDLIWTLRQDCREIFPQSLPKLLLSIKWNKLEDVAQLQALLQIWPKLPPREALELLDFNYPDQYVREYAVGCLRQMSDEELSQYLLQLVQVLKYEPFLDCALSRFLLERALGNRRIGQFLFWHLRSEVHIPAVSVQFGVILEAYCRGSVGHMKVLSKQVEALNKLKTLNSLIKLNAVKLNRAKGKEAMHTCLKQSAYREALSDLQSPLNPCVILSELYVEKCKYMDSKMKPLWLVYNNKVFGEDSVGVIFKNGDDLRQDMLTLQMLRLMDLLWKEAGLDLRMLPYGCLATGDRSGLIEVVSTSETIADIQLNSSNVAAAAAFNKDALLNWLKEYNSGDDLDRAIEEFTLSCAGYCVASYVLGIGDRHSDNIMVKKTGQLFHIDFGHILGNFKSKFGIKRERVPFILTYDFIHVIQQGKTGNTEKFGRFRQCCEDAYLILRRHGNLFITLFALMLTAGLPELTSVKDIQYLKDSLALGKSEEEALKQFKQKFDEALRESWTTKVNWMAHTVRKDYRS
Chain of p110β (PI3Kβ) (P27986 whole entry partner, species assumed): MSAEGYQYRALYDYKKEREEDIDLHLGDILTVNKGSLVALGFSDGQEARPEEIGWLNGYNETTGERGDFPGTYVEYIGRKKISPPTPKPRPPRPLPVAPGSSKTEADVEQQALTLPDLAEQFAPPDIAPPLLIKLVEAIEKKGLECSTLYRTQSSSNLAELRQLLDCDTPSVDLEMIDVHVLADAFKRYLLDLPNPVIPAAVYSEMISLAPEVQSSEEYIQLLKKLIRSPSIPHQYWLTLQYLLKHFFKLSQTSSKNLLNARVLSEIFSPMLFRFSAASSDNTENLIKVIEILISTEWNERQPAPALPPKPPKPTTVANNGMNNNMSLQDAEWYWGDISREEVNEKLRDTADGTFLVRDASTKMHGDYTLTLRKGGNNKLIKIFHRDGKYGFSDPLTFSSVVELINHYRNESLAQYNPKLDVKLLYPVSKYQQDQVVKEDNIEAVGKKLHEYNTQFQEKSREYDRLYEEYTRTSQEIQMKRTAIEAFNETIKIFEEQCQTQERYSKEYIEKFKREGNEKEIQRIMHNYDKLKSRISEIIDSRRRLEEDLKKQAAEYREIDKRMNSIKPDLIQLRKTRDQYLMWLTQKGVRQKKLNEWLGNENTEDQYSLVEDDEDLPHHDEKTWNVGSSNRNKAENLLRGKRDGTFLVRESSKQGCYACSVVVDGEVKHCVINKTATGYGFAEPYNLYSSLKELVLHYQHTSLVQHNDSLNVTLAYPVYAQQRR

Chain of FKBP12 (P62942 whole entry, species assumed): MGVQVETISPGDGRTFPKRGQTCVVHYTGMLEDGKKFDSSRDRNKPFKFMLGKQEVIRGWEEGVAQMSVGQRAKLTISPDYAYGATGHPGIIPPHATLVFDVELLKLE
Chain of p110γ (PI3Kγ) (P48736 whole entry, species assumed): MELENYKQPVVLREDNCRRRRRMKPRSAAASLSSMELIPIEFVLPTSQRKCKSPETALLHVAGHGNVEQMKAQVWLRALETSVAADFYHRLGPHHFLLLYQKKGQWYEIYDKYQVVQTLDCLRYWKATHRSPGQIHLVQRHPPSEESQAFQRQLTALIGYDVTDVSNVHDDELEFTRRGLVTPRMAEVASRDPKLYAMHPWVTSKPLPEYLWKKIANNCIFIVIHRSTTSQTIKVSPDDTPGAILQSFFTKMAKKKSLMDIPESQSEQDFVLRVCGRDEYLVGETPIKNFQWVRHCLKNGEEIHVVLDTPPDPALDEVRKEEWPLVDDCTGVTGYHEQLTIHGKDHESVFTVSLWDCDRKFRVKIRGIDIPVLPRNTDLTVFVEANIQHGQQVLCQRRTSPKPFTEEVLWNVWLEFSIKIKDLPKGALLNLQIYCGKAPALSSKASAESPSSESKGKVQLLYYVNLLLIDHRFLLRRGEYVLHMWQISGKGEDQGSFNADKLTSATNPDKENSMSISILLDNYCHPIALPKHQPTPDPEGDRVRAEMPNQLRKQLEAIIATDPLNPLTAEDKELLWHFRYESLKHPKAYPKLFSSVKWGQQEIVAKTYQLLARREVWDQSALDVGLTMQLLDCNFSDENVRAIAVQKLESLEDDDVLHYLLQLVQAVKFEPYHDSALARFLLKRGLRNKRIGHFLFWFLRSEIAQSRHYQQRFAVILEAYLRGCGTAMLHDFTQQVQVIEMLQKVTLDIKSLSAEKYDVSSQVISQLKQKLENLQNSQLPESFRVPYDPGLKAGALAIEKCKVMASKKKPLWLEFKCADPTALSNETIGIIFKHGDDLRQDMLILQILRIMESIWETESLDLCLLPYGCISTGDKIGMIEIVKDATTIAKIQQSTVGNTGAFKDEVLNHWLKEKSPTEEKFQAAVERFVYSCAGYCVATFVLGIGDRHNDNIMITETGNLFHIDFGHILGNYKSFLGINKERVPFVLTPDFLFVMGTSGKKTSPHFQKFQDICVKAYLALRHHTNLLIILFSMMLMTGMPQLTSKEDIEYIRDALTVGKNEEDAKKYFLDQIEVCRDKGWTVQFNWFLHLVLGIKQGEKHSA

CO[C@H]1CC2CC[C@@H](C)[C@@](O)(O2)C(=O)C(=O)N2CCCC[C@H]2C(=O)O[C@H]([C@H](C)C[C@@H]2CCC(OP(C)(C)=O)[C@H](OC)C2)CC(=O)[C@H](C)/C=C(\C)[C@@H](O)[C@@H](OC)C(=O)[C@H](C)C[C@H](C)/C=C/C=C/C=C/1C (some centres unmarked) [Deforolimus, 42-(Dimethylphosphinate) rapamycin]
IC50 (mTOR): 0.2 nM

CC(=O)O[C@@]12CO[C@@H]1C[C@H](O)[C@@]1(C)C(=O)[C@H](O)C3=C(C)[C@@H](OC(=O)[C@H](O)[C@@H](NC(=O)OC(C)(C)C)c4ccccc4)C[C@@](O)([C@@H](OC(=O)c4ccccc4)[C@H]21)C3(C)C [Docetaxel]
IC50 (MDA-MB-231): 3 nM | IC50 (HCC1937): 7.2 nM

CO[C@H]1C[C@@H]2CC[C@@H](C)[C@@](O)(O2)C(=O)C(=O)N2CCCC[C@H]2C(=O)O[C@H]([C@H](C)C[C@@H]2CC[C@@H](OCCO)[C@H](OC)C2)CC(=O)[C@H](C)/C=C(\C)[C@@H](O)[C@@H](OC)C(=O)[C@H](C)C[C@H](C)/C=C/C=C/C=C/1C [Everolimus, reference compound]
tumor mass with respect to vehicle-treated mice [1]: not active | IC50 (FKBP12): 1.6 to 2.4 nM

COc1ccc(-c2ccc3ncc4c(c3c2)n(-c2ccc(N3CCNCC3)c(C(F)(F)F)c2)c(=O)n4C)cn1 [NVP-BGT226]
IC50 (PI3K/mTOR): 1 nM

COc1ccc(-c2cc3c(C)nc(N)nc3n([C@H]3CC[C@H](OCCO)CC3)c2=O)cn1 [PF-04691502]
IC50 [2]: 3.8 nM | IC50 [3]: 7.5 nM

COc1cc(Nc2nc3ccccc3nc2NS(=O)(=O)c2ccc(NC(=O)c3ccc(C)c(OC)c3)cc2)cc(OC)c1 [XL765]
IC50 (mTOR): 157 nM

GSK2126458
Ki (p110γ (PI3Kγ)): 0.024 nM | Ki (p110β (PI3Kβ)): 0.13 nM
